Measured values reported in PubChem BioAssay AID248 (DTP/NCI, 2004).
Where “and” joins values, the source holds several entries; their conditions need not be identical. Identical values can stand only once. Inconclusive results and toxic doses are left out.

Test system: L1210 leukemia ip in BDF1 mice, survival T/C
Assay: NCI In Vivo Anticancer Drug Screen. Data for tumor model L1210 Leukemia (intraperitoneal) in B6D2F1 (BDF1) mice
Details: endpoint: mean survival time, higher = longer survival
Procedure, shortened: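 Tumor was transplanted into mice, which were then dosed with test compound or vehicle alone. Survival was recorded for each group, and the treated figure was expressed relative to the control figure.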

[1] = dose: 100.0 mg/kg/injection, schedule: Q04DX003 (ip), vehicle: Klucel (hydroxypropylcellulose) (HPC)
[2] = dose: 200.0 mg/kg/injection, schedule: Q04DX003 (ip), vehicle: Klucel (hydroxypropylcellulose) (HPC)
[3] = dose: 400.0 mg/kg/injection, schedule: Q04DX003 (ip), vehicle: Klucel (hydroxypropylcellulose) (HPC)
[4] = dose: 6.25 mg/kg/injection, schedule: Q01DX009 (ip), vehicle: saline
[5] = dose: 12.5 mg/kg/injection, schedule: Q01DX009 (ip), vehicle: saline
[6] = dose: 12.5 mg/kg/injection, schedule: Q04DX003 (ip), vehicle: saline
[7] = dose: 25.0 mg/kg/injection, schedule: Q01DX009 (ip), vehicle: saline
[8] = dose: 25.0 mg/kg/injection, schedule: Q04DX003 (ip), vehicle: saline
[9] = dose: 100.0 mg/kg/injection, schedule: Q01DX009 (ip), vehicle: Klucel (hydroxypropylcellulose) (HPC)
[10] = dose: 200.0 mg/kg/injection, schedule: Q01DX009 (ip), vehicle: Klucel (hydroxypropylcellulose) (HPC)
[11] = dose: 400.0 mg/kg/injection, schedule: Q01DX009 (ip), vehicle: Klucel (hydroxypropylcellulose) (HPC)
[12] = dose: 25.0 mg/kg/injection, schedule: Q01DX009 (ip), vehicle: Klucel (hydroxypropylcellulose) (HPC)
[13] = dose: 50.0 mg/kg/injection, schedule: Q01DX009 (ip), vehicle: Klucel (hydroxypropylcellulose) (HPC)
[14] = dose: 50.0 mg/kg/injection, schedule: Q04DX002 (ip), vehicle: Klucel (hydroxypropylcellulose) (HPC)
[15] = dose: 100.0 mg/kg/injection, schedule: Q04DX002 (ip), vehicle: Klucel (hydroxypropylcellulose) (HPC)
[16] = dose: 100.0 mg/kg/injection, schedule: Q01DX001 (ip), vehicle: saline
[17] = dose: 200.0 mg/kg/injection, schedule: Q01DX001 (ip), vehicle: saline
[18] = dose: 400.0 mg/kg/injection, schedule: Q01DX001 (ip), vehicle: saline
[19] = dose: 50.0 mg/kg/injection, schedule: Q01DX001 (ip), vehicle: saline
[20] = dose: 100.0 mg/kg/injection, schedule: Q04DX003 (ip), vehicle: saline with Tween-80
[21] = dose: 200.0 mg/kg/injection, schedule: Q04DX003 (ip), vehicle: saline with Tween-80
[22] = dose: 400.0 mg/kg/injection, schedule: Q04DX003 (ip), vehicle: saline with Tween-80
[23] = dose: 50.0 mg/kg/injection, schedule: Q01DX009 (ip), vehicle: saline with Tween-80
[24] = dose: 100.0 mg/kg/injection, schedule: Q01DX009 (ip), vehicle: saline with Tween-80
[25] = dose: 200.0 mg/kg/injection, schedule: Q01DX009 (ip), vehicle: saline with Tween-80
[26] = dose: 100.0 mg/kg/injection, schedule: Q01DX001 (ip), vehicle: carboxymethylcellulose (CMC)
[27] = dose: 200.0 mg/kg/injection, schedule: Q01DX001 (ip), vehicle: carboxymethylcellulose (CMC)
[28] = dose: 25.0 mg/kg/injection, schedule: Q01DX009 (ip), vehicle: saline with Tween-80

In the case of `CCCCCCCCCCCCCCCCS(=O)(=O)c1ccccc1NC(N)=O`, the T/C [1] is reported as 97 % of control, the T/C [2] is reported as 98 % of control and the T/C [3] is reported as 95 % of control.

`COc1ccc(C(=O)OCC(Br)CBr)cc1` (configuration not stated) was tested, and the T/C (dose: 222.0 mg/kg/injection, schedule: Q01DX Z (ip), vehicle: methylcellulose (MC)) was 102 % of control, the T/C (dose: 333.0 mg/kg/injection, schedule: Q01DX Z (ip), vehicle: methylcellulose (MC)) was 108 % of control and the T/C (dose: 500.0 mg/kg/injection, schedule: Q01DX Z (ip), vehicle: methylcellulose (MC)) was 103 % of control.

In the case of `CCN(CC)CCC1CCNCC1`, the T/C [4] is reported as 101 % of control, the T/C [5] is reported as 95 % of control and the T/C [6] is reported as 100 % of control. For the same molecule, the T/C [7] was 98 % of control and the T/C [8] was 96 % of control.

`CCCC(C1=CC(C)(C)c2ccccc2C1=O)c1ccc(Br)cc1` (configuration not stated) was tested, and the T/C [9] was 108 % of control, the T/C [1] was 110 % of control and the T/C [10] was 106 % of control. The T/C [2] was 113 % of control, the T/C [11] was 103 % of control and the T/C [3] was 106 % of control.

For `COc1cccc2cc([N+](=O)[O-])oc12`, the T/C [12] was 98 % of control, the T/C [13] was 93 % of control and the T/C [14] was 105 % of control. For the same molecule, the T/C [9] was 101 % of control, the T/C [15] was 94 % of control and the T/C (dose: 200.0 mg/kg/injection, schedule: Q04DX002 (ip), vehicle: Klucel (hydroxypropylcellulose) (HPC)) was 101 % of control.

With `Cc1cc(/C=C2\C=Cc3ccccc32)ccc1N(C)C` the T/C [16] was 94 % of control, the T/C [17] was 93 % of control and the T/C [18] was 98 % of control.

`CS/C(N)=N\N=C/c1ccccc1` was tested, and the T/C [4] was 102 % of control, the T/C [5] was 102 % of control and the T/C (dose: 25.0 mg/kg/injection, schedule: Q01DX001 (ip), vehicle: saline) was 117 % of control. For the same molecule, the T/C [7] was 102 % of control, the T/C [8] was 97 % of control and the T/C [19] was 97 % of control. For the same molecule, the T/C [16] was 102 % of control and 105 % of control.

`CC(C)(C)c1ccc(N)cc1` was tested, and the T/C [6] was 106 % of control, the T/C [8] was 95 % of control and the T/C (dose: 50.0 mg/kg/injection, schedule: Q04DX003 (ip), vehicle: saline) was 98 % of control.

With `Cc1cc2ncn(C(=O)Nc3ccccc3)c2cc1C` the T/C [20] was 92 % of control, the T/C [21] was 87 % of control and the T/C [22] was 90 % of control.

For `Cn1ncc2cncnc21`, the T/C [16] was 103 % of control, the T/C [17] was 103 % of control and the T/C [18] was 103 % of control.

With `ClC(Cl)(Cl)c1cccc(C(Cl)(Cl)Cl)c1` the T/C [9] was 121 % of control, the T/C [1] was 105 % of control and the T/C [10] was 101 % of control. For the same molecule, the T/C [2] was 95 % of control and the T/C [3] was 95 % of control.

In the case of `OCC1N=C(c2ccccc2)OC1c1ccccc1` (configuration not stated), the T/C [23] is reported as 94 % of control, the T/C [24] is reported as 102 % of control and the T/C [25] is reported as 96 % of control.

`O=S(c1ccccc1)N(OCc1ccccc1)S(=O)c1ccccc1` (configuration not stated) was tested, and the T/C (dose: 25.0 mg/kg/injection, schedule: Q04DX002 (ip), vehicle: Klucel (hydroxypropylcellulose) (HPC)) was 98 % of control, the T/C [14] was 104 % of control and the T/C [15] was 95 % of control.

In the case of `CCN(CC)CC1CO1` (configuration not stated), the T/C (dose: 7.5 mg/kg/injection, schedule: Q01DX009 (ip), vehicle: saline) is reported as 102 % of control and the T/C (dose: 15.0 mg/kg/injection, schedule: Q01DX009 (ip), vehicle: saline) is reported as 97 % of control.

With `COC1Nc2cc3ccccc3cc2-c2ccccc21` (configuration not stated) the T/C [26] was 97 % of control and the T/C [27] was 97 % of control.

`CCOC(=O)C1=NN(c2ccccc2)C(=O)C1N=Nc1ccc(S(=O)(=O)Nc2onc(C)c2C)cc1` (configuration not stated) was tested, and the T/C [16] was 104 % of control, the T/C [17] was 98 % of control and the T/C [18] was 107 % of control.

`CCCCCCc1cc(CN(C2CCCCC2)C2CCCCC2)c(O)cc1O` was tested, and the T/C [16] was 92 % of control and the T/C [18] was 87 % of control.

With `CCCOc1ccc(C=Nc2ccc(C)cc2)cc1` the T/C [9] was 98 % of control, the T/C [1] was 109 % of control and the T/C [10] was 116 % of control. For the same molecule, the T/C [2] was 101 % of control and the T/C [3] was 117 % of control.

`NC(Cc1cc([N+](=O)[O-])ccc1CN(CCCl)CCCl)C(=O)O` (configuration not stated) was tested, and the T/C (dose: 3.6 mg/kg/injection, schedule: Q04DX003 (ip), vehicle: saline) was 161 % of control, the T/C (dose: 6.0 mg/kg/injection, schedule: Q01DX001 (ip), vehicle: saline) was 198 % of control and the T/C (dose: 6.0 mg/kg/injection, schedule: Q04DX003 (ip), vehicle: saline) was 158 % of control and 315 % of control. The T/C (dose: 10.0 mg/kg/injection, schedule: Q01DX001 (ip), vehicle: saline) was 173 % of control and 248 % of control, the T/C (dose: 10.0 mg/kg/injection, schedule: Q04DX003 (ip), vehicle: saline) was 163 % of control and 352 % of control and the T/C (dose: 16.7 mg/kg/injection, schedule: Q01DX001 (ip), vehicle: saline) was 302 % of control and 309 % of control. The T/C (dose: 16.7 mg/kg/injection, schedule: Q04DX003 (ip), vehicle: saline) was 151 % of control.

For `c1ccc2c(c1)CNNC2`, the T/C [7] was 97 % of control, the T/C (dose: 50.0 mg/kg/injection, schedule: Q01DX009 (ip), vehicle: saline) was 96 % of control and the T/C (dose: 100.0 mg/kg/injection, schedule: Q01DX009 (ip), vehicle: saline) was 102 % of control. The T/C (dose: 200.0 mg/kg/injection, schedule: Q01DX009 (ip), vehicle: saline) was 103 % of control and the T/C (dose: 400.0 mg/kg/injection, schedule: Q01DX009 (ip), vehicle: saline) was 105 % of control.

With `O=P(CCl)(CCl)CCl` the T/C [28] was 100 % of control, the T/C [23] was 92 % of control and the T/C [24] was 88 % of control and 92 % of control.

With `O=C(O)Cn1cnc2cncnc21` the T/C [20] was 118 % of control, the T/C [21] was 104 % of control and the T/C [22] was 102 % of control.

For `CCN(CCCl)CCCNCc1c2ccccc2c(C)c2ccccc12`, the T/C (dose: 5.0 mg/kg/injection, schedule: Q01DX005 (ip), vehicle: saline) was 116 % of control.

`O=C(O)CNC(CSCc1ccccc1)CSCc1ccccc1` was tested, and the T/C [28] was 101 % of control, the T/C [23] was 106 % of control and the T/C [24] was 90 % of control. For the same molecule, the T/C [25] was 97 % of control and the T/C (dose: 400.0 mg/kg/injection, schedule: Q01DX009 (ip), vehicle: saline with Tween-80) was 103 % of control.

`[O-][n+]1ccc(CC(O)(C(F)(F)F)C(F)(F)F)cc1` was tested, and the T/C [12] was 93 % of control, the T/C [13] was 92 % of control and the T/C [9] was 97 % of control and 104 % of control. The T/C [1] was 103 % of control, the T/C [2] was 102 % of control and the T/C [3] was 96 % of control.

For `CCCCCCCCCCCCCCCCCCNC(=O)CCl`, the T/C [9] was 94 % of control, the T/C [1] was 92 % of control and the T/C [10] was 89 % of control. The T/C [2] was 90 % of control and the T/C [3] was 97 % of control.

With `C=CCc1ccc(OC(=O)Nc2cccc(C)c2)c(OC)c1` the T/C [23] was 98 % of control, the T/C [24] was 112 % of control and the T/C (dose: 100.0 mg/kg/injection, schedule: Q04DX002 (ip), vehicle: saline with Tween-80) was 99 % of control. For the same molecule, the T/C [25] was 101 % of control and 102 % of control and the T/C (dose: 200.0 mg/kg/injection, schedule: Q04DX002 (ip), vehicle: saline with Tween-80) was 89 % of control.

`O=C(Nc1cccc(Cl)c1)NS(=O)(=O)c1ccccc1` was tested, and the T/C [9] was 97 % of control, the T/C [10] was 105 % of control and the T/C [11] was 106 % of control.

For `CCSc1ncc(F)c(=O)[nH]1`, the T/C [19] was 113 % of control, the T/C [16] was 101 % of control and the T/C [17] was 98 % of control.

`CC(=O)Nc1cc2c(cc1[N+](=O)[O-])-c1ccc(F)cc1C2` was tested, and the T/C (dose: 50.0 mg/kg/injection, schedule: Q04DX003 (ip), vehicle: Klucel (hydroxypropylcellulose) (HPC)) was 104 % of control, the T/C [26] was 94 % of control and the T/C [1] was 96 % of control. The T/C [27] was 96 % of control, the T/C [2] was 100 % of control and the T/C (dose: 400.0 mg/kg/injection, schedule: Q01DX001 (ip), vehicle: carboxymethylcellulose (CMC)) was 91 % of control.

`COc1ccc(CNCCN2CC2)cc1` was tested, and the T/C (dose: 10.0 mg/kg/injection, schedule: Q01DX009 (ip), vehicle: Klucel (hydroxypropylcellulose) (HPC)) was 108 % of control, the T/C (dose: 20.0 mg/kg/injection, schedule: Q01DX009 (ip), vehicle: Klucel (hydroxypropylcellulose) (HPC)) was 106 % of control and the T/C (dose: 40.0 mg/kg/injection, schedule: Q01DX009 (ip), vehicle: Klucel (hydroxypropylcellulose) (HPC)) was 98 % of control.
